In brackets after ≈: the same amount, converted by molar mass. Activity calls are given as the source filed them. No cut-off for these calls is given here. Where a SMILES comes first, the peptide text is derived from it.
What was measured:
Staphylococcus aureus [1] = assay: Antibacterial activity against Staphylococcus aureus ATCC 25923 incubated for 18 hrs by visual inspection method; type: functional
Staphylococcus aureus [2] = assay: Antibacterial activity against methicillin resistant Staphylococcus aureus 2 incubated for 18 hrs by visual inspection method; type: functional
Staphylococcus aureus [3] = assay: Antibacterial activity against methicillin resistant Staphylococcus aureus 3 incubated for 18 hrs by visual inspection method; type: functional
Acinetobacter baumannii = assay: Antibacterial activity against multidrug resistant Acinetobacter baumannii 2 incubated for 18 hrs by visual inspection method; type: functional
Erythrocyte = assay: Hemolytic activity in rat erythrocytes incubated for 1 hr; type: toxicity, cell-based
Staphylococcus aureus [4] = assay: Antibacterial activity against Staphylococcus aureus ATCC 25923 incubated for 18 hrs in presence of 50 mM NaCl by visual inspection method; type: functional
Cell membrane [5] = assay: Induction of cell membrane damage in Escherichia coli at 4 times MIC incubated for 30 mins by PI staining based confocal laser scanning microscopic analysis; type: cell membranes
Cell membrane [6] = assay: Induction of cell membrane damage in Escherichia coli assessed as change in morphology by measuring numerous blebs covered membrane at 4 times MIC incubated for 5 hrs by SEM analysis; type: cell membranes
Staphylococcus aureus [7] = assay: Bactericidal activity against Staphylococcus aureus at 4 times MIC measured after 2 hrs by time kill kinetic assay; type: functional
Escherichia coli = assay: Bactericidal activity against Escherichia coli at 4 times MIC measured after 2 hrs by time kill kinetic assay; type: functional
Staphylococcus aureus [8] = assay: Induction of resistance development against Staphylococcus aureus assessed as fold increase in MIC after 21 passages; type: functional
Staphylococcus aureus [9] = assay: Inhibition of biofilm formation in Staphylococcus aureus at 2 times MIC incubated for 24 hrs by crystal violet staining based assay; type: functional
[10] = Toxicity in BALB/c mouse assessed as spleen damage at 400 mg/kg, ip measured after 48 hrs by H and E staining based assay; type: organism-based; settings: in vivo
[11] = Toxicity in BALB/c mouse assessed as lung damage at 400 mg/kg, ip measured after 48 hrs by H and E staining based assay; type: organism-based; settings: in vivo

Work on `CC[C@H](C)[C@H](NC(=O)[C@H](Cc1ccccc1)NC(=O)[C@@H](N)Cc1c[nH]c2ccccc12)C(=O)N[C@H](C(=O)N[C@@H](Cc1c[nH]c2ccccc12)C(=O)N[C@@H](Cc1c[nH]cn1)C(=O)N[C@@H](Cc1c[nH]c2ccccc12)C(=O)N[C@@H](CCCNC(=N)N)C(=O)N[C@@H](CCCCN)C(=O)N[C@H](C(=O)N1CCC[C@H]1C(=O)N1CCC[C@H]1C(=O)N[C@@H](CCCCN)C(N)=O)[C@@H](C)CC)[C@@H](C)CC` (H-WFIIWHWRKIPPK-NH2) yielded an MIC (Staphylococcus aureus [1]) of 7.5 µg/mL (≈ 4.15 µM), an MIC (Staphylococcus aureus [2]) of 7.5 µg/mL (≈ 4.15 µM) and an MIC (Staphylococcus aureus [3]) of 7.5 µg/mL (≈ 4.15 µM). The MIC (Acinetobacter baumannii) was 7.5 µg/mL (≈ 4.15 µM), the HC5 (Erythrocyte) was 416.15 µg/mL and the MIC (Staphylococcus aureus [4]) was 7.5 µg/mL. The Activity (Cell membrane [5]) was “Active”, the Activity (Cell membrane [6]) was “Active” and the Activity (Staphylococcus aureus [7]) was 100%. The Activity (Escherichia coli) was 100%, the fold change (FC) (Staphylococcus aureus [8]) was 2 and the “inhibition (INH)” value (Staphylococcus aureus [9]) was 20.76%. The Activity [10] was “Non-Toxic” and the Activity [11] was “Non-Toxic”.

Reference: ChEMBL document CHEMBL5614417, “Discovery of AMPs from random peptides via deep learning-based model and biological activity validation” (Eur J Med Chem, 2024)
